The test system of the assay is tumor tissues (breast). Put plainly: Immunohistopathology of tumor tissue after treatment. Conditions: 48 hours post treatment, FIG. 7. Format: in vivo. From the text:
After treatment with either cisplatin or the platinum peptide complex, tumor tissues (breast) were dissected and embedded in […]. The tumor tissue was fixed in […] and stained for cellular target expression.

In patent US20030109432A1, “Anticancer polypeptide-metal complexes and compositions, methods of making, and methods of using same” (priority 2001, published 2003) one finds histopathological changes data, which are given here for two compounds.

Turning to `[NH2][Pt]([NH2])([Cl])[Cl]` [CDDP, cisplatin], the histopathological changes result is “marked necrosis and apoptosis”. For the compound “cis-1,2-DACH—Pt (II)-poly(glutamic/aspartic acid) [PDDP]”, the histopathological changes entry is “marked necrosis and apoptosis”.
